Experimental data taken from ChEMBL document CHEMBL1145276, “Synthesis and biological evaluation of 6,7-disubstituted 4-aminopyrido[2,3-d]pyrimidines as adenosine kinase inhibitors” (Bioorg Med Chem Lett, 2005).

What was measured:
[1] = biological target: T1, Adenosine kinase (Homo sapiens, UniProt P55263); test: Inhibitory concentration against Adenosine Kinase (enzyme)
[2] = biological target: T1, Adenosine kinase; test: Inhibitory concentration against Adenosine Kinase (intact cells)

T1 sequence (P55263 whole entry): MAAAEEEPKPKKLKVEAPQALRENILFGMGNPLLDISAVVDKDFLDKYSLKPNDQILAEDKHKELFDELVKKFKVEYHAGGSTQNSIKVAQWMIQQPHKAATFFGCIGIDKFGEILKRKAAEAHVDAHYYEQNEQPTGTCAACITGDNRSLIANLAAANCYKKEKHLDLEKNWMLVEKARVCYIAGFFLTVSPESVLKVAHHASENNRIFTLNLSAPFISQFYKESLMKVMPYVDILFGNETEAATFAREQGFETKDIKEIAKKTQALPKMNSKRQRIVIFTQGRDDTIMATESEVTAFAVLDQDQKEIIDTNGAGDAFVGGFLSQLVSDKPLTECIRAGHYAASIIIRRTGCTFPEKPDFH

Row | SMILES | IC50 [1] [µM] | IC50 [2] [µM]
1 | CN(C)c1ccc(-c2nc3ncnc(N)c3cc2-c2ccccc2)cc1 | 0.35 | 
2 | CN(C)c1ccc(-c2cc3c(N)ncnc3nc2-c2ccc(N(C)C)cc2)cc1 | 0.183 | 0.367
3 | CC(C)Cc1cc2c(N)ncnc2nc1-c1ccc(N(C)C)cc1 | 0.2 | > 1
4 | CN(C)c1ccc(-c2cnc3c(N)ncnc3n2)cc1 | 0.44 | 
5 | Cc1ccc(-c2cc3c(N)ncnc3nc2-c2cc3ccccc3o2)cc1 | > 1 | 
6 | CN(C)c1ccc(-c2cc3c(N)ncnc3nc2-c2ccncc2)cc1 | 0.467 | 4.17
7 | Nc1ncnc2nc(-c3nccs3)c(Cc3cccc(Br)c3)cc12 | 0.9 | 
8 | CN(C)c1ccc(-c2nc3ncnc(N)c3cc2CCc2ccccc2)cc1 | 0.433 | 
9 | CN(C)c1ccc(-c2nc3ncnc(N)c3cc2CCCc2ccccc2)cc1 | 2.23 | 
10 | CN(C)c1ccc(-c2ccc3c(N)ncnc3n2)cc1 | 0.773 | > 10
11 | COc1cccc(-c2cc3c(N)ncnc3nc2-c2ccc(N(C)C)cc2)c1 | > 1 | 

Continued by falling IC50 [1], values first:

Row | IC50 [1] [µM] | IC50 [2] [µM] | SMILES
12 | 0.18 |  | Cc1ccc(-c2cc3c(N)ncnc3nc2-c2ccc(-c3cncnc3)cc2)cc1
13 | 0.115 |  | Cc1ccc(-c2cc3c(N)ncnc3nc2-c2ccc(/C=C/c3ccccn3)cc2)cc1
14 | 0.114 | 0.65 | CN(C)c1ccc(-c2nc3ncnc(N)c3cc2Cc2ccccc2)cc1
15 | 0.092 |  | COc1ccc(-c2cc3c(N)ncnc3nc2-c2ccc(N(C)C)cc2)cc1
16 | 0.07 | > 1 | CN(C)c1ccc(-c2nc3ncnc(N)c3cc2-c2cccc(Br)c2)cc1
17 | 0.047 | > 1 | Cc1ccc(-c2cc3c(N)ncnc3nc2-c2ccsc2)cc1
18 | 0.045 | 0.35 | COc1ccc(-c2cc3c(N)ncnc3nc2-c2ccc(N(C)C)cc2)cc1OC
19 | 0.038 | 0.3 | COc1ccc(-c2cc3c(N)ncnc3nc2-c2cccs2)cc1OC
20 | 0.033 | 0.225 | COc1ccc(-c2cc3c(N)ncnc3nc2-c2ccc(N(C)C)cc2)cc1Br
21 | 0.03 | 0.7 | CCCCCc1cc2c(N)ncnc2nc1-c1ccc(N(C)C)cc1
22 | 0.02 | > 1 | CN(C)c1ccc(-c2nc3ncnc(N)c3cc2-c2ccc(Br)cc2)cc1
23 | 0.011 | 0.767 | CCCCc1cc2c(N)ncnc2nc1-c1cccs1
24 | 0.009 | 0.8 | Cc1ccc(-c2cc3c(N)ncnc3nc2-c2cccs2)cc1
25 | 0.008 | 0.375 | COc1ccc(-c2cc3c(N)ncnc3nc2-c2cccs2)cc1Br
26 | 0.0038 | 0.65 | Nc1ncnc2nc(-c3cccs3)c(Cc3cccc(Br)c3)cc12
